Laboratory results published in patent US8987195B2 (priority 2012, dated 2015).
Where two headings read alike, the source gives them in different places.

Columns and labels:
[1] = test system: HCV genotype 1b replicon; test: HCV replicon assay, genotype 1b replicon EC50; type: cell-based, Hepatitis C virus; conditions: Hepatitis C virus, read-out: EC50 [gt-1b]
Summary of the method: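 Cells harbouring a stable replicon are grown under G418 selection, then plated with test compound in G418-free medium for 24-48 hours. After washing and lysis, RNA or luciferase signal is measured and expressed as percent of DMSO control to give EC50.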

[2] = target: HCV NS3/4A protease genotype 1b (Hepatitis C virus genotype 1b, UniProt P26663); test: HCV NS3/4A protease time-resolved fluorescence (TRF) assay, Ki against genotype 1b; type: biochemical
Summary of the method: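 NS3/4A enzyme was preincubated 30 min with inhibitor in 50 mM HEPES pH 7.5, 150 mM NaCl, 15% glycerol, 0.15% Triton X-100, 10 mM DTT, 0.1% PEG 8000; 25 nM europium TRF peptide substrate added, 2.5 h at room temperature. Enzyme: 0.2 nM (1b), 0.4 nM (A156T), 0.025 nM (3a). Ki from IC50 via Cheng-Prusoff.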

[3] = IC50 [gt-1b] (nM), NS3/4A genotype 1b, enzyme 0.2 nM
[4] = IC50 [gt-1b] (nM), NS3/4A genotype 1b, enzyme 0.2 nM, K+ salt
[5] = IC50 [gt-1b], NS3/4A protease TRF assay, genotype 1b enzyme 0.2 nM

| SMILES | EC50 ([1]; genotype 1b replicon) [nM] | IC50 [2, 3] [nM] | EC50 ([1]; HCV replicon, genotype 1b) [nM] | IC50 [2, 5] [nM] | also measured |
| --- | --- | --- | --- | --- | --- |
| Cc1nc2ccc(Cl)cc2c2c1O[C@]1(CC2)C[C@H]2C(=O)N[C@]3(C(=O)NS(=O)(=O)C4(C)CC4)C[C@H]3/C=C\CCCCC[C@H](NC(=O)OCC3CCCC3)C(=O)N2C1 [Example 231, cyclopentylmethyl [(2R,6S,12Z,13aS,14aR,16aS)-9′-chloro-5′-methyl-14a-{[(1-methylcyclopropyl)sulfonyl]carbamoyl}-5,16-dioxo-1,1′,2′,5,6,7,8,9,10,11,13a,14,14a,15,16,16a-hexadecahydrospiro[cyclopropa[e]pyrrolo[1,2-a][1,4]diazacyclopentadecine-2,3′-pyrano[2,3-c]quinolin]-6-yl]carbamate] | 4.77 | 0.024 |  |  |  |
| Cc1nc2ccc(OC(F)(F)F)cc2c2c1O[C@]1(CC2)C[C@H]2C(=O)N[C@]3(C(=O)NS(=O)(=O)C4(C)CC4)C[C@H]3/C=C\CCCCC[C@H](NC(=O)OC(C)(C)C)C(=O)N2C1 [Example 1, tert-butyl (2R,6S,13aS,14aR,16aS,Z)-5′-methyl-14a-(1-methylcyclopropylsulfonylcarbamoyl)-5,16-dioxo-9′-(trifluoromethoxy)-1′,2′,3,5,6,7,8,9,10,11,13a,14,14a,15, 16,16a-hexadecahydro-1H-spiro[cyclopropa[e]pyrrolo[1,2-a][1,4]diazacyclopentadecine-2,3′-pyrano[2,3-c]quinoline]-6-ylcarbamate] | 1.47 | 0.013 |  |  |  |
| COc1ccc2nc(C(F)(F)F)c3c(c2c1)CC[C@]1(C[C@H]2C(=O)N[C@]4(C(=O)NS(=O)(=O)C5(C)CC5)C[C@H]4/C=C\CCCCC[C@H](NC(=O)OC(C)(C)C(F)(F)F)C(=O)N2C1)O3 [Example 348, 1,1,1-trifluoro-2-methylpropan-2-yl [(2R,6S,12Z,13aS,14aR,16aS)-9′-methoxy-14a-{[(1-methylcyclopropyl)sulfonyl]carbamoyl}-5,16-dioxo-5′-(trifluoromethyl)-1,1′,2′,5,6,7,8,9,10,11,13a,14,14a,15,16,16a-hexadecahydrospiro[cyclopropa[e]pyrrolo[1,2-a][1,4]diazacyclopentadecine-2,3′-pyrano[2,3-c]quinolin]-6-yl]carbamate] |  |  |  |  | EC50 ([1]; genotype 1b replicon, K+ salt): 9.23 nM; IC50 [2, 4]: 0.046 nM |
| Cc1nc2cc(Cl)ccc2c2c1O[C@]1(CC2)C[C@H]2C(=O)N[C@]3(C(=O)NS(=O)(=O)C4(C)CC4)C[C@H]3/C=C\CCCCC[C@H](NC(=O)OC3(C)CC3)C(=O)N2C1 [Example 236, 1-methylcyclopropyl [(2R,6S,12Z,13aS,14aR,16aS)-8′-chloro-5′-methyl-14a-{[(1-methylcyclopropyl)sulfonyl]carbamoyl}-5,16-dioxo-1,1′,2′,5,6,7,8,9,10,11,13a,14,14a,15,16,16a-hexadecahydrospiro[cyclopropa[e]pyrrolo[1,2-a][1,4]diazacyclopentadecine-2,3′-pyrano[2,3-c]quinolin]-6-yl]carbamate] |  |  |  |  | EC50 ([1]; genotype 1b replicon, K+ salt): 7.24 nM; IC50 [2, 4]: 0.056 nM |
| COc1ccc2nc(C3CC3)c3c(c2c1)CC[C@]1(C[C@H]2C(=O)N[C@]4(C(=O)NS(=O)(=O)C5(C)CC5)C[C@H]4/C=C\CCCCC[C@H](NC(=O)OC(C)C)C(=O)N2C1)O3 [Example 94, propan-2-yl [(2R,6S,12Z,13aS,14aR,16aS)-5′-cyclopropyl-9′-methoxy-14a-{[(1-methylcyclopropyl)sulfonyl]carbamoyl}-5,16-dioxo-1,1′,2′,5,6,7,8,9,10,11,13a,14,14a,15,16,16a-hexadecahydrospiro[cyclopropa[e]pyrrolo[1,2-a][1,4]diazacyclopentadecine-2,3′-pyrano[2,3-c]quinolin]-6-yl]carbamate] | 0.61 | 0.003 |  |  |  |
| Cc1nc2c(F)cccc2c2c1O[C@]1(CC2)C[C@H]2C(=O)N[C@]3(C(=O)NS(=O)(=O)C4CC4)C[C@H]3/C=C\CCCCC[C@H](NC(=O)OC(C)(C)C)C(=O)N2C1 [Example 107, tert-butyl {(2R,6S,12Z,13aS,14aR,16aS)-14a-[(cyclopropylsulfonyl)carbamoyl]-7′-fluoro-5′-methyl-5,16-dioxo-1,1′,2′,5,6,7,8,9,10,11,13a,14,14a,15,16,16a-hexadecahydrospiro[cyclopropa[e]pyrrolo[1,2-a][1,4]diazacyclopentadecine-2,3′-pyrano[2,3-c]quinolin]-6-yl}carbamate] | 3.48 | 0.014 |  |  |  |
| COc1ccc2nc(C)c3c(c2c1)CC[C@]1(C[C@H]2C(=O)N[C@]4(C(=O)NS(=O)(=O)C5(C)CC5)C[C@H]4/C=C\CCCCC[C@H](NC(=O)OC(C(C)(C)C)C(F)(F)F)C(=O)N2C1)O3 (stereo partly drawn) [Example 366, 1,1,1-trifluoro-3,3-dimethylbutan-2-yl [(2R,6S,12Z,13aS,14aR,16aS)-9′-methoxy-5′-methyl-14a-{[(1-methylcyclopropyl)sulfonyl]carbamoyl}-5,16-dioxo-1,1′,2′,5,6,7,8,9,10,11,13a,14,14a,15,16,16a-hexadecahydrospiro[cyclopropa[e]pyrrolo[1,2-a][1,4]diazacyclopentadecine-2,3′-pyrano[2,3-c]quinolin]-6-yl]carbamate] |  |  | 6.46 | 0.023 |  |
| Cc1nc2ccc(Cl)cc2c2c1O[C@]1(CC2)C[C@H]2C(=O)N[C@]3(C(=O)NS(=O)(=O)C4(C)CC4)C[C@H]3/C=C\CCCCC[C@H](NC(=O)OCC3CCC3)C(=O)N2C1 [Example 221, cyclobutylmethyl [(2R,6S,12Z,13aS,14aR,16aS)-9′-chloro-5′-methyl-14a-{[(1-methylcyclopropyl)sulfonyl]carbamoyl}-5,16-dioxo-1,1′,2′,5,6,7,8,9,10,11,13a,14,14a,15,16,16a-hexadecahydrospiro[cyclopropa[e]pyrrolo[1,2-a][1,4]diazacyclopentadecine-2,3′-pyrano[2,3-c]quinolin]-6-yl]carbamate] | 11.6 | 0.008 |  |  |  |
| COc1ccc2nc(C(C)C)c3c(c2c1)C(F)(F)C[C@]1(C[C@H]2C(=O)N[C@]4(C(=O)NS(=O)(=O)C5(C)CC5)C[C@H]4/C=C\CCCCC[C@H](NC(=O)OC(C)(C)CCS(=O)(=O)C(C)C)C(=O)N2C1)O3 [Example 281, 2-methyl-4-(propan-2-ylsulfonyl)butan-2-yl [(2S,6S,12Z,13aS,14aR,16aS)-1′,1′-difluoro-9′-methoxy-14a-{[(1-methylcyclopropyl)sulfonyl]carbamoyl}-5,16-dioxo-5′-(propan-2-yl)-1,1′,2′,5,6,7,8,9,10,11,13a,14,14a,15,16,16a-hexadecahydrospiro[cyclopropa[e]pyrrolo[1,2-a][1,4]diazacyclopentadecine-2,3′-pyrano[2,3-c]quinolin]-6-yl]carbamate] | 10.8 | 0.06 |  |  |  |
| Cc1nc2cc(F)ccc2c2c1O[C@]1(CC2)C[C@H]2C(=O)N[C@]3(C(=O)NS(=O)(=O)C4(C)CC4)C[C@H]3/C=C\CCCCC[C@H](NC(=O)OC(C)(C)C)C(=O)N2C1 [Example 71, tert-butyl [(2R,6S,12Z,13aS,14aR,16aS)-8′-fluoro-5′-methyl-14a-{[(1-methylcyclopropyl)sulfonyl]carbamoyl}-5,16-dioxo-1,1′,2′,5,6,7,8,9,10,11,13a,14,14a,15,16,16a-hexadecahydrospiro[cyclopropa[e]pyrrolo[1,2-a][1,4]diazacyclopentadecine-2,3′-pyrano[2,3-c]quinolin]-6-yl]carbamate] |  |  |  |  | EC50 ([1]; genotype 1b replicon, K+ salt): 0.628 nM; IC50 [2, 4]: 0.023 nM |
| CCc1nc2ccc(OC)cc2c2c1O[C@]1(CC2)C[C@H]2C(=O)N[C@]3(C(=O)NS(=O)(=O)C4(C)CC4)C[C@H]3/C=C\CCCCC[C@H](NC(=O)c3cc[nH]n3)C(=O)N2C1 [Example 469, (2R,6S,12Z,13aS,14aR,16aS)-5′-ethyl-9′-methoxy-N-[(1-methylcyclopropyl)sulfonyl]-5,16-dioxo-6-[(1H-pyrazol-3-ylcarbonyl)amino]-1,1′,2′,6,7,8,9,10,11,13a,14,15,16,16a-tetradecahydrospiro[cyclopropa[e]pyrrolo[1,2-a][1,4]diazacyclopentadecine-2,3′-pyrano[2,3-c]quinoline]-14a(5H)-carboxamide] |  |  | 48.8 | 0.016 |  |
| COCC1(S(=O)(=O)NC(=O)[C@@]23C[C@H]2/C=C\CCCCC[C@H](NC(=O)O[C@@H](C)C(C)C)C(=O)N2C[C@@]4(CCc5c(c(C(F)F)nc6ccc(OC)cc56)O4)C[C@H]2C(=O)N3)CC1 [Example 478, (2S)-3-methylbutan-2-yl [(2R,6S,12Z,13aS,14aR,16aS)-5′-(difluoromethyl)-9′-methoxy-14a-({[1-(methoxymethyl)cyclopropyl]sulfonyl}carbamoyl)-5,16-dioxo-1,1′,2′,5,6,7,8,9,10,11,13a,14,14a,15,16,16a-hexadecahydrospiro[cyclopropa[e]pyrrolo[1,2-a][1,4]diazacyclopentadecine-2,3′-pyrano[2,3-c]quinolin]-6-yl]carbamate] |  |  | 5.8 | 0.016 |  |
| COCC1(S(=O)(=O)NC(=O)[C@@]23C[C@H]2/C=C\CCCCC[C@H](NC(=O)OCC(C)(C)C)C(=O)N2C[C@@]4(CCc5c(c(C(F)(F)F)nc6ccc(OC)cc56)O4)C[C@H]2C(=O)N3)CC1 [Example 496, 2,2-dimethylpropyl [(2R,65,12Z,13aS,14aR,16aS)-9′-methoxy-14a-({[1-(methoxymethyl)cyclopropyl]sulfonyl}carbamoyl)-5,16-dioxo-5′-(trifluoromethyl)-1,1′,2′,5,6,7,8,9,10,11,13a,14,14a,15,16,16a-hexadecahydrospiro[cyclopropa[e]pyrrolo[1,2-a][1,4]diazacyclopentadecine-2,3′-pyrano[2,3-c]quinolin]-6-yl]carbamate] |  |  | 6.93 | 0.027 |  |
